Data on 8 molecules can be found in patent US20230293535A1, “ERBB/BTK INHIBITORS” (Dizal (Jiangsu) Pharmaceutical Co., Ltd., priority 2018, published 2023).

Broadly, the GI50 is the concentration giving 50% growth inhibition. One may read the IC50 as the concentration that inhibits the measured activity by half.

Holding throughout (format): cell-based
Test [1] deals with TMD-8 cells. In words: BTK (wt) cell proliferation, TMD-8 (CellTiter-Glo, 72 h).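 Note: viable cells quantified by ATP-based luminescence, proliferation expressed as percent of DMSO control after subtracting a time-zero baseline plate read at dosing.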 Conditions: Homo sapiens, TMD8, 72 h, TMD-8 cells, 72 h, CellTiter-Glo; read-out: BTK WT TMD-8 GI50. A general note: In ATP-based viability assays light output follows the ATP content of the culture.
Test [2] relates to NCI-H1975 EGFR L858R/T790M cells. The test can be described thus: Cell proliferation, NCI-H1975 EGFR L858R/T790M (CellTiter-Glo, 72 h).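 Note: viable cells quantified by luciferase-based ATP luminescence, proliferation expressed relative to DMSO-treated wells (100%) after subtracting a parallel plate read at the time of dosing.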 Conditions: Homo sapiens, NCI-H1975, 72 h.
The target in test [3] is T1, EGFR L858R&T790M (Homo sapiens, UniProt P00533, L858R/T790M).
T1 construct: host or cells: NCI-H1975
In words: EGFR L858R and T790M cellular phosphorylation inhibition in NCI-H1975 (MSD).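 Note: phosphorylated and total EGFR detected by electrochemiluminescence, cells exposed to compound in medium containing 1% FBS at 37 °C.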 Conditions: NCI-H1975 cells, 4 h compound, p-EGFR(Y1068)/total EGFR; read-out: EGFR L858R and T790M mutation IC50.
Experimental: One day before the test, WT or mutant cells were seeded in 96 well plates at appropriate concentrations with corresponding growth media supplemented with 1% FBS, and incubated overnight. The next day, tested compounds at a series of concentrations were added into each individual well of the plates, and the plates were incubated for 4 h at 37° C. with 5% CO2.
The EGFR (Y1068) phosphorylation level (activity) of cells in each well were then measured with MSD kit named “MULTI-SPOT®96 4-Spot HB Prototype EGFR Triplex [sequence]: pEGFR(Tyr1068),pEGFR(Tyr1173), Total EGFR” according to the manufacturer’s instruction (MESO SCALE DISCOVERY, Cat# N45ZB-1). The assay is an electrochemiluminescent method for determining both phosphorylated and total EGFR of cells with an MSD SECTOR® Imager and the ratio of p-EGFR/total EGFR can be generated by the machine. The Her2 (Y1248) phosphorylation level (activity) of cells in each well were measured with MSD Kit named “Phospho-ErbB2 (Tyr1248) Assay Whole Cell Lysate Kit” according to the manufacturer’s instruction (MESO SCALE DISCOVERY, Cat# K151CLD-3). The assay is an electrochemiluminescent method (MESO SCALE DISCOVERY) for determining both phosphorylated and total Her2 of cells with an MSD SECTOR® Imager and then the ratio of p-Her2/total Her2 can be generated by the machine.

Test [4] relates to Her2 exon 20 insertion YVMA transduced NIH-3T3 cell line. In words: Cell proliferation, Her2 YVMAins NIH-3T3 (CellTiter-Glo, 72 h).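 Note: viable cells quantified by ATP luminescence, growth over a day-zero baseline plate expressed as percent of DMSO control growth, compound dilution series in 10% FBS medium.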 Conditions: Mus musculus, NIH3T3, 72 h, Her2 YVMAins cells, 72 h proliferation; read-out: Her2 Exon 20 YVMA insertion GI50.
Test [5] concerns the target T2, human Her2 exon 20 insertion mutation YVMA (Homo sapiens, UniProt P04626, INS775YVMA).
T2 construct: expressed in transfected cells; host or cells: NIH-3T3, lentiviral transduction, puromycin selection
The test can be described thus: Her2 Exon 20 YVMA insertion cellular phosphorylation inhibition (MSD p-Her2 Y1248/total Her2).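 Note: lentivirally transduced NIH-3T3 cells in 1% FBS medium, electrochemiluminescent MSD read-out, graded compound concentrations at 37 °C.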 Conditions: Her2 YVMAins cells, 4 h compound.

The target of test [6] is T3, human EGFR exon 20 V769_D770insASV (Homo sapiens, UniProt P00533, INS769ASV).
T3 construct: expressed in transfected cells; host or cells: Ba/F3 (DSMZ ACC-300), lentiviral transduction, puromycin selection, IL3 depletion
T3 sequence (P00533 with tags, fused parts or gaps INS769ASV): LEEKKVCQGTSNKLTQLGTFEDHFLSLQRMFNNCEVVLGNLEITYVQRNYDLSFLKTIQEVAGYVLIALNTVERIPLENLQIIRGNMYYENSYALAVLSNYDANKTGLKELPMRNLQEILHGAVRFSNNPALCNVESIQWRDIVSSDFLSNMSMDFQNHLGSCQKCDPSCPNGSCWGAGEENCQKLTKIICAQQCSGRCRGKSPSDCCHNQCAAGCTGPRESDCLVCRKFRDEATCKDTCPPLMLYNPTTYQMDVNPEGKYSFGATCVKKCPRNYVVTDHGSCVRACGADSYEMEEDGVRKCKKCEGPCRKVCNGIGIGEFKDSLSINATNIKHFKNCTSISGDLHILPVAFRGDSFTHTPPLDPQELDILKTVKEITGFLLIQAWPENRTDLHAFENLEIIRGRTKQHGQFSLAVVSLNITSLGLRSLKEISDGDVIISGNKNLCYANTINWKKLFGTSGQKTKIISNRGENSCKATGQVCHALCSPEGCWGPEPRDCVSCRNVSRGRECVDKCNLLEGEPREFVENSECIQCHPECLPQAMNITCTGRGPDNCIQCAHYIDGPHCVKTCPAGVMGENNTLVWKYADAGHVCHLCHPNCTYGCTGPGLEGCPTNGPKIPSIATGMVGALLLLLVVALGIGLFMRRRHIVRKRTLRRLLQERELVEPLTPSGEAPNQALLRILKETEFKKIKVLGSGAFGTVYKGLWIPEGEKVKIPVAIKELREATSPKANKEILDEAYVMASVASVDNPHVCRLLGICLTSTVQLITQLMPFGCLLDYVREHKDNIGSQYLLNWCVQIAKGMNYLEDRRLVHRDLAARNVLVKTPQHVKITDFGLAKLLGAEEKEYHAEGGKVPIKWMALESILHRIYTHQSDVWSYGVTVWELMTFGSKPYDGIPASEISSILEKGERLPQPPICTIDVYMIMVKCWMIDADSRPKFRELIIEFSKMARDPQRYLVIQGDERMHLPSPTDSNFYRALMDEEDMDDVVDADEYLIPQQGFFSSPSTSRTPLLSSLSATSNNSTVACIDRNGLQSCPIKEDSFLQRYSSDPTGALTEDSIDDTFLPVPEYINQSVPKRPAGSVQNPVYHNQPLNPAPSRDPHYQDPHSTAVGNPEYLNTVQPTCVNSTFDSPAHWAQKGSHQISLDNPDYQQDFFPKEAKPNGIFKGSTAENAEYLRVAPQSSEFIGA
The test can be described thus: EGFR Exon20 ASV insertion cellular phosphorylation inhibition (MSD pEGFR Y1068/total EGFR).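 Note: electrochemiluminescent readout on an MSD SECTOR Imager, IL3-independent transduced cells in medium with 1% FBS, compound concentration series at 37 °C and 5% CO2.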 Conditions: Ba/F3 EGFR ASV ins cells, 4 h compound, p-EGFR(Y1068)/total EGFR.

Test [7] deals with DB cells. In words: BTK (wt) cell proliferation, DB (CellTiter-Glo, 72 h).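 Note: DB cells in 384-well plates given a dilution series of compound, viable cells read by ATP luminescence, growth expressed versus DMSO control after subtracting a time-zero plate reading.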 Conditions: Homo sapiens, DB, DB cells, CellTiter-Glo, read-out: Non-BCR activated DB GI50.
Test [8] addresses T4, WT EGFR (Homo sapiens, UniProt P00533).
T4 construct: host or cells: A-431
In words: WT EGFR cellular phosphorylation inhibition in A-431 (hEGF stimulated, MSD).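 Note: electrochemiluminescence read-out of EGFR Tyr1068 phosphorylation expressed as ratio to total EGFR, cells kept in medium with 1% FBS, compounds tested as a concentration series.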 Conditions: A431 cells, 4 h compound, then 100 ng/ml hEGF 10 min.

For test [9], the system named is Ri-1 cells. The test can be described thus: BTK (wt) cell proliferation, Ri-1 (CellTiter-Glo, 72 h).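 Note: viable cells quantified as cellular ATP luminescence, proliferation normalized to a time-zero plate and the DMSO control, compounds tested across a dilution series.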 Conditions: Ri-1, 72 h, Ri-1 cells, 72 h, CellTiter-Glo; read-out: BTK WT Ri-1 GI50.
In test [10] the target is T5, human EGFR exon 20 H773_V774insNPH (Homo sapiens, UniProt P00533, INS773NPH).
T5 construct: host or cells: Ba/F3
T5 sequence (P00533 with tags, fused parts or gaps INS773NPH): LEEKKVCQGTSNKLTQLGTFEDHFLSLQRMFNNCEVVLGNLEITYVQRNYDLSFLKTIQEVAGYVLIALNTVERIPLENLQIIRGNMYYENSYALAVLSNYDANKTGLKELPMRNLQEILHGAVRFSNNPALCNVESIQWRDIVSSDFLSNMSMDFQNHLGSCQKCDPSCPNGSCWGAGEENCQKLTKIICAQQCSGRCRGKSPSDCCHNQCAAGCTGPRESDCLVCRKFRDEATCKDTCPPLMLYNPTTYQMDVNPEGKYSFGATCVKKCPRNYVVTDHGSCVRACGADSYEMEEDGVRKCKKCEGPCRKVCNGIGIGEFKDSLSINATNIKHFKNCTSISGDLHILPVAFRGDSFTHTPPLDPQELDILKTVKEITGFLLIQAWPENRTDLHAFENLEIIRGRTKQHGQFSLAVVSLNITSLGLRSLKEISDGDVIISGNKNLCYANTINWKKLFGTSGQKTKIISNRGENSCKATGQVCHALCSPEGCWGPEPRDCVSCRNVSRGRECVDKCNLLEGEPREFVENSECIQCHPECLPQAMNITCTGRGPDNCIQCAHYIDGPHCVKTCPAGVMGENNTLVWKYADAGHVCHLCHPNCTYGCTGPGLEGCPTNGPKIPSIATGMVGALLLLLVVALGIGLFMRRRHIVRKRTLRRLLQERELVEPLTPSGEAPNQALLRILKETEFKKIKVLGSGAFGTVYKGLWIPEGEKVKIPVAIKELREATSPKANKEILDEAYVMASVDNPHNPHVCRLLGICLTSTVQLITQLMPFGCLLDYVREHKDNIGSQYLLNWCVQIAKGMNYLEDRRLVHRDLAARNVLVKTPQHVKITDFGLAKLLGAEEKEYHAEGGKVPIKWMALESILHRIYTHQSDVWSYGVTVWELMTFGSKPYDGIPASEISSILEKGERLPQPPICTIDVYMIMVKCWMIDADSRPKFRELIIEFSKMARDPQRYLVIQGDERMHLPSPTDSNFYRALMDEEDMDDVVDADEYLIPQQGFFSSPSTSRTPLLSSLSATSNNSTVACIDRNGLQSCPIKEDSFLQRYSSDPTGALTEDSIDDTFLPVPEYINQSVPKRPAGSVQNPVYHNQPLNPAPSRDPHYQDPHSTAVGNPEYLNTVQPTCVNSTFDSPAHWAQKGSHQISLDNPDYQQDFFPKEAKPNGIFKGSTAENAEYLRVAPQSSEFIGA
In words: EGFR Exon20 NPH insertion cellular phosphorylation inhibition (MSD pEGFR Y1068/total EGFR).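 Note: IL3-independent Ba/F3 cells with constitutively phosphorylated EGFR, compound exposure at 37 °C under 5% CO2, electrochemiluminescent MSD measurement of the p-EGFR to total EGFR ratio.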 Conditions: Ba/F3 EGFR NPH ins cells, 4 h compound, p-EGFR(Y1068)/total EGFR.

The test system of test [11] is Ba/F3 EGFR NPH ins cells. In words: Cell proliferation, Ba/F3 EGFR NPH ins (CellTiter-Glo, 72 h).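 Note: IL3-independent cells carrying constitutively phosphorylated EGFR, compound dilution series, viable cells quantified by ATP luminescence, growth relative to DMSO wells after subtracting pre-dosing (day 0) baseline.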 Conditions: Ba/F3 EGFR, 72 h.
Test [12] relates to WT EGFR cell line A-431. In words: Cell proliferation, WT EGFR A431 (CellTiter-Glo, 72 h).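 Note: proliferation from a luminescent ATP viability signal, expressed as 100 × (treated minus time-zero plate) over (DMSO control minus time-zero plate), cells grown with 10% FBS.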 Conditions: Homo sapiens, A-431, 72 h.
Test [13] deals with OCI-LY-10 cells. The test can be described thus: BTK (wt) cell proliferation, OCI-LY-10 (CellTiter-Glo, 72 h).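 Note: viable cells quantified via cellular ATP luminescence, proliferation given as percent of DMSO control after subtracting a duplicate plate read at time of dosing.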 Conditions: Homo sapiens, OCI-Ly10, 72 h, OCI-LY-10 cells, 72 h, CellTiter-Glo; read-out: BTK WT OCI-LY-10 GI50.
Test [14] deals with Ba/F3 EGFR ASV ins cells. The test can be described thus: Cell proliferation, Ba/F3 EGFR ASV ins (CellTiter-Glo, 72 h).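 Note: IL3-independent Ba/F3 cells transduced with EGFR V769_D770insASV, cellular ATP luminescence after compound exposure, growth relative to DMSO control with the day-0 baseline reading subtracted.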 Conditions: Ba/F3 EGFR, 72 h.
Setting [15] is: NCI-H1975, 72 h proliferation, read-out: EGFR L858R and T790M mutation GI50.
The mark [16] stands for this setting: Ba/F3 EGFR NPH ins, 72 h proliferation, read-out: EGFR Exon20 NPH insertion GI50.
Setting [17] is: A431, 72 h proliferation, read-out: EGFR WT A431 GI50.
[18] abbreviates: Ba/F3 EGFR ASV ins, 72 h proliferation, read-out: EGFR Exon20 ASV insertion GI50.

Counter-ions that a name gives are not always drawn. Like-named read-outs stand apart in the source and are kept apart here. A value given as a limit tells only on which side of the number the result lay.

T2 sequence (P04626 with tags, fused parts or gaps INS775YVMA): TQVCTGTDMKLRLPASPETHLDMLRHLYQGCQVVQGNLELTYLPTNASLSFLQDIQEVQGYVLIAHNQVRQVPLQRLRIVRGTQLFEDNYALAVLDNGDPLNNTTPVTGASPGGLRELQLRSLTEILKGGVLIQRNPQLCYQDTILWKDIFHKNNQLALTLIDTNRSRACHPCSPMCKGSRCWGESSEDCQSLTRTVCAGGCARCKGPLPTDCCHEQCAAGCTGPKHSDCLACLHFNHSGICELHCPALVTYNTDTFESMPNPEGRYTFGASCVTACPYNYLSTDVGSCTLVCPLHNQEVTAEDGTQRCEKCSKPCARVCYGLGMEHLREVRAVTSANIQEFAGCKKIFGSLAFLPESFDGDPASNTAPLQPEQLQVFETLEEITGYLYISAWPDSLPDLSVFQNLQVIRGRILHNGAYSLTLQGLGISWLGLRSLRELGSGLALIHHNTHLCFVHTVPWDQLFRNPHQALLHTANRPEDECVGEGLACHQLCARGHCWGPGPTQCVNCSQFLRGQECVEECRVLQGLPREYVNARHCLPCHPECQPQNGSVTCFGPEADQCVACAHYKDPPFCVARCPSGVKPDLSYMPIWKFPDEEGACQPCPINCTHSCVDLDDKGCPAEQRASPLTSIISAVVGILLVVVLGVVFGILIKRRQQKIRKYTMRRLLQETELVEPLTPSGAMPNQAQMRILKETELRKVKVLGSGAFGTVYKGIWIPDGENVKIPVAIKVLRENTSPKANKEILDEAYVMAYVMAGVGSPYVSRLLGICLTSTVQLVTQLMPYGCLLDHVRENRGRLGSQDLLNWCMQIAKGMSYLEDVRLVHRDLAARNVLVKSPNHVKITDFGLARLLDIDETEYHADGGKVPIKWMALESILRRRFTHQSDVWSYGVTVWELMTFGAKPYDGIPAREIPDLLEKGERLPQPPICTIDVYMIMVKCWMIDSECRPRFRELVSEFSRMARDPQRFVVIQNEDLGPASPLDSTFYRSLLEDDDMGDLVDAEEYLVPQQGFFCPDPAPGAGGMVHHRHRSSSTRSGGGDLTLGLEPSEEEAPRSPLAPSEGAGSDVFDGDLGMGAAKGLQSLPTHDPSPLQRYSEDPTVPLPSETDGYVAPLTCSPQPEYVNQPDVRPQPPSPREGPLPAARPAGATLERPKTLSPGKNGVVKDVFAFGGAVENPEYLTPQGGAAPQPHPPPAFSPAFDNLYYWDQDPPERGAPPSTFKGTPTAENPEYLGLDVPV
T4 sequence (P00533 25-1210): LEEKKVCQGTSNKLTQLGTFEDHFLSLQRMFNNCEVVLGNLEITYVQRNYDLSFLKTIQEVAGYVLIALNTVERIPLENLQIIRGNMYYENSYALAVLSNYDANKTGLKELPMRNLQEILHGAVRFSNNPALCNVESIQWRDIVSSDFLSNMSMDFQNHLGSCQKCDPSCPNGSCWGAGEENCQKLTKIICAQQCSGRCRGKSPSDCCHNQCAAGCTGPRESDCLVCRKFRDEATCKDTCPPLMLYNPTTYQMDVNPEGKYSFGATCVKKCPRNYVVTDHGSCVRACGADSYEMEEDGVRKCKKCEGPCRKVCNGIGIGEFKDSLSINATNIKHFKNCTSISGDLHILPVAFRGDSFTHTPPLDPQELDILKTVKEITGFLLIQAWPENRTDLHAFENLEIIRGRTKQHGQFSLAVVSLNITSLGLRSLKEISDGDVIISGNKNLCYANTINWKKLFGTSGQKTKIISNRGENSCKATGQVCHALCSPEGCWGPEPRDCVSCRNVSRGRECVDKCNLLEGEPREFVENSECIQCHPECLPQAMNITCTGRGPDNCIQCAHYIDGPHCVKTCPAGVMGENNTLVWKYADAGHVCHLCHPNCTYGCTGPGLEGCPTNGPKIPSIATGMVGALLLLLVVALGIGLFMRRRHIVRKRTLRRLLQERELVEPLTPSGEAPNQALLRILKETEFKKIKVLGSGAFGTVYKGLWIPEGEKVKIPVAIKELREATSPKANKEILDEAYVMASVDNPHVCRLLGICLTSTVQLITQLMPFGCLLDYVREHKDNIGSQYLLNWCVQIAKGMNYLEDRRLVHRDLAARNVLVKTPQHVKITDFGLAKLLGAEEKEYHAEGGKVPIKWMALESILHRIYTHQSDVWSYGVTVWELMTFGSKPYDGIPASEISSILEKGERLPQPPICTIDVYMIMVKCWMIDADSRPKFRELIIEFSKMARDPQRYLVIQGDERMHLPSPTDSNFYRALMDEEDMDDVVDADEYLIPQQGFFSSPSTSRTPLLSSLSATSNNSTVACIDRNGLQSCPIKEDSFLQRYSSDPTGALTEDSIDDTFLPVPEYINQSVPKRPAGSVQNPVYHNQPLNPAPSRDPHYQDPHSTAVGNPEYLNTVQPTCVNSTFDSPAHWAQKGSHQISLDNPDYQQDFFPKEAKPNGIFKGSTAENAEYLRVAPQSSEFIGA

In the case of `C=CC(=O)Nc1cc(Nc2ncnc(Nc3ccccc3C3(O)CC3)n2)c(OC)cc1N(C)CCN(C)C` [Compound 2, N-(2-((2-(dimethylamino)ethyl)(methyl)amino)-5-(4-(2-(1-hydroxycyclopropyl)phenylamino)-1,3,5-triazin-2-ylamino)-4-methoxyphenyl)acrylamide], the concentration for 50% growth inhibition (GI50) was 130 nM in [1]; 13.9 nM in test [2] (setting [15]); 45.2 nM in test [4]; above 3000 nM in test [7]; 86.6 nM in test [9]; 56 nM in [11] (setting [16]). Also, the results for the concentration for 50% growth inhibition (GI50) in test [12] (setting [17]), in [13] and in [14] (setting [18]) were 26.6 nM, 134 nM and 42.2 nM, respectively. Besides, the half-maximal inhibitory concentration (IC50) stood at 0.5 nM in test [3]; 4.6 nM in test [5]; 13.4 nM in [6]; 21.3 nM in test [8]; 19.7 nM in test [10].
In the case of `C=CC(=O)Nc1cc(Nc2ncnc(Nc3cnc(F)cc3C(C)(C)O)n2)c(OC)cc1N(C)CCN(C)C` [Compound 3, N-(2-((2-(dimethylamino)ethyl)(methyl)amino)-5-(4-(6-fluoro-4-(2-hydroxypropan-2-yl)pyridin-3-ylamino)-1,3,5-triazin-2-ylamino)-4-methoxyphenyl) acrylamide], the GI50 in test [1] is 635 nM; in test [2] (setting [15]) it was 55.6 nM; in test [4] it was 183 nM; in test [7], above 3000 nM; in [9] it was above 3000 nM; in [11] (setting [16]), 307 nM. Further, the concentration for 50% growth inhibition (GI50) in [12] (setting [17]) is 69.3 nM; in test [13], 2510 nM; in test [14] (setting [18]) it was 252 nM. The concentration for half-maximal inhibition (IC50) in test [3] came out at 3.1 nM; in test [5], 51.2 nM; in test [6], 92.4 nM; in [8], 103 nM; in [10] it was 296 nM.
On to `C=CC(=O)Nc1cc(Nc2ncnc(Nc3cc(F)c(F)cc3C(C)(C)O)n2)c(OC)cc1N(C)CCN(C)C` [Compound 4, N-(5-(4-(4,5-difluoro-2-(2-hydroxypropan-2-yl)phenylamino)-1,3,5-triazin-2-ylamino)-2-((2-(dimethylamino)ethyl)(methyl)amino)-4-methoxyphenyl)ac rylamide], for which the GI50 in [1] is 77.1 nM; in test [2] (setting [15]), 6.9 nM; in test [4] it was 31 nM; in test [7], above 3000 nM; in test [9] it was 61.4 nM; in test [11] (setting [16]) it was 32.2 nM. Moreover, the figures for the GI50 in test [12] (setting [17]), in test [13] and in test [14] (setting [18]) were 15.7 nM, 8.9 nM and 20.7 nM, respectively. Further, the half-inhibitory concentration (IC50) in test [3] came to 0.4 nM; in test [5] it was 5.5 nM; in [6] it was 6.1 nM; in test [8], 11.1 nM; in test [10], 8.2 nM.
Take `C=CC(=O)Nc1cc(Nc2ncnc(Nc3cccnc3C(C)(C)O)n2)c(OC)cc1N(C)CCN(C)C` [Compound 8, N-(2-((2-(dimethylamino)ethyl)(methyl)amino)-5-(4-(2-(2-hydroxypropan-2-yl)pyridin-3-ylamino)-1,3,5-triazin-2-ylamino)-4-methoxyphenyl)acrylamide]: the concentration for 50% growth inhibition (GI50) in test [1] was 1780 nM; in test [2] (setting [15]) it was 32.4 nM; in test [4] it was 353 nM; in [7], above 3000 nM; in test [9], above 3000 nM; in test [11] (setting [16]), 258 nM. Also, the values for the GI50 in test [12] (setting [17]), in test [13] and in [14] (setting [18]) were 99.8 nM, 88 nM and 250 nM, respectively. Also, the IC50 in test [3] worked out at 2.9 nM; in test [5] it was 25.7 nM; in [6], 117 nM; in [8] it was 43.1 nM; in [10], 91.1 nM.
Take `C=CC(=O)Nc1cc(Nc2ncnc(Nc3ccc(F)c(F)c3C(C)(C)O)n2)c(OC)cc1N(C)CCN(C)C` [Compound 9, N-(5-(4-(3,4-difluoro-2-(2-hydroxypropan-2-yl)phenylamino)-1,3,5-triazin-2-ylamino)-2-((2-(dimethylamino)ethyl)(methyl)amino)-4-methoxyphenyl)ac rylamide]: the GI50 in [1] was 551 nM; in [2] (setting [15]) it was 44.6 nM; in test [4] it was 156 nM; in test [7] it was above 3000 nM; in [9], 700 nM; in test [11] (setting [16]), 180 nM. Further, the 50% growth inhibitory concentration (GI50) in [12] (setting [17]) worked out at 83.1 nM; in test [13] it was 309 nM; in test [14] (setting [18]), 191 nM. In addition, the half-maximal inhibitory concentration (IC50) was 2 nM in test [3]; 13.9 nM in test [5]; 62.5 nM in test [6]; 131 nM in [8]; 51.3 nM in test [10].
On to `C=CC(=O)Nc1cc(Nc2ncnc(Nc3cc(F)c(Cl)cc3C(C)(C)O)n2)c(OC)cc1N(C)CCN(C)C` [Compound 12, N-(5-(4-(4-chloro-5-fluoro-2-(2-hydroxypropan-2-yl)phenylamino)-1,3,5-triazin-2-ylamino)-2-((2-(dimethylamino)ethyl)(methyl)amino)-4-methoxyphenyl)acrylamide], for which the GI50 in [1] was 34.5 nM; in [2] (setting [15]), 8.4 nM; in test [4] it was 24.5 nM; in test [7], above 3000 nM; in [9], 51.2 nM; in test [11] (setting [16]), 21.5 nM. Moreover, the concentration for 50% growth inhibition (GI50) turned out to be 14.2 nM in test [12] (setting [17]), 27.8 nM in [13] and 25.3 nM in [14] (setting [18]). Moreover, the IC50 in [3] came to 0.3 nM; in [5] it was 3.4 nM; in [6], 6.4 nM; in [8], 7.6 nM; in test [10], 10.8 nM.
`C=CC(=O)Nc1cc(Nc2ncnc(Nc3ccc(Cl)c(F)c3C(C)(C)O)n2)c(OC)cc1N(C)CCN(C)C` [Compound 14, N-(5-(4-(4-chloro-3-fluoro-2-(2-hydroxypropan-2-yl)phenylamino)-1,3,5-triazin-2-ylamino)-2-((2-(dimethylamino)ethyl)(methyl)amino)-4-methoxyphenyl)acrylamide]: the 50% growth inhibitory concentration (GI50) is 102 nM in test [1]; 18 nM in test [2] (setting [15]); 58.7 nM in test [4]; above 3000 nM in test [7]; 136 nM in [9]; 55.4 nM in test [11] (setting [16]). The GI50 in [12] (setting [17]) is 29.1 nM; in [13], 155 nM; in test [14] (setting [18]), 84.1 nM. In addition, the 50% inhibitory concentration (IC50) in [3] was found to be 1.1 nM; in test [5], 15.8 nM; in [6], 26.5 nM; in test [8] it was 31.3 nM; in test [10] it was 38.4 nM.
As for `C=CC(=O)Nc1cc(Nc2nccc(Nc3cc(Cl)c(F)cc3C(C)(C)O)n2)c(OC)cc1N1C[C@H](N(C)C)C2(CC2)C1` [Compound 83, (R)-N-(5-(4-(5-chloro-4-fluoro-2-(2-hydroxypropan-2-yl)phenylamino)pyrimidin-2-ylamino)-2-(7-(dimethylamino)-5-azaspiro[2.4]heptan-5-yl)-4-methoxyphenyl) acrylamide formic acid salt], the GI50 in [2] (read-out: EGFR L858R and T790M mutation GI50 (nM)) is 38.9 nM; in [4], 678 nM; in [11] (read-out: EGFR Exon20 NPH insertion GI50 (nM)), 300 nM; in test [12] (read-out: EGFR WT A431 GI50 (nM)), 252 nM; in test [14] (read-out: EGFR Exon20 ASV insertion GI50 (nM)), 340 nM. The half-maximal inhibitory concentration (IC50) in test [3] worked out at 5 nM; in [5], 87.6 nM; in [6], 154 nM; in test [8], 1010 nM; in [10], 239 nM.
